In US8541407B2 (ArQule, Inc., priority 2010, dated 2013):
Where a name gives a salt, the structure may show the parent alone.

Molecular target: AKT1 (Homo sapiens (Human), UniProt P31749)
Assay: Inactive Akt Alpha Screen Assay
Conditions: non *labeled: Akt Alpha Screen assay; read-out: AKT1 biochemical assay, IC50
Procedure: AKT1 activity was assayed using the GSK3-derived biotinylated peptide substrate, crosstide (biotin-[…]), and AlphaScreen™ (Amplified Luminescent Proximity Homogeneous Assay) technology. AKT1 activation was achieved by the addition of the activating kinases PDK1 and MAPKAPK2, lipid vesicles, and ATP. The extent of peptide phosphorylation was determined using a phospho-AKT substrate antibody and acceptor beads conjugated to Protein A and donor beads conjugated to streptavidin that bind to the biotin on the peptide. Excitation of the donor beads converted ambient oxygen to excited singlet oxygen which, when in close proximity to acceptor beads, reacted with acceptor beads resulting in signal amplification. […] The plates were incubated for 30 minutes at room temperature, and then stopped in the dark by the addition of 10 μL stop/detection mixture prepared in assay buffer containing EDTA, AlphaScreen™ Streptavidin Donor and Protein A Acceptor beads, and phospho-AKT substrate antibody for final concentrations of 10 mM EDTA, 500 ng/well of both AlphaScreen™ Streptavidin Donor beads and Protein A Acceptor beads, and phospho-AKT substrate antibody at a final dilution of 1:350. Assay plates were incubated for 90 minutes at room temperature in the dark, and the plates were read on a Perkin Elmer Envision Multilabel plate reader (excitation wavelength: […], emission wavelength: 570 nm). […] Envision Instrument Settings: • Instrument: Perkin Elmer Envision • Plate: 96 well • Program Name: • Excitation: Ex Top • Mirror: General Dual—Slot 2 • Excitation Filter: CFP430 Ex.

AKT1, sequence (P31749 whole entry): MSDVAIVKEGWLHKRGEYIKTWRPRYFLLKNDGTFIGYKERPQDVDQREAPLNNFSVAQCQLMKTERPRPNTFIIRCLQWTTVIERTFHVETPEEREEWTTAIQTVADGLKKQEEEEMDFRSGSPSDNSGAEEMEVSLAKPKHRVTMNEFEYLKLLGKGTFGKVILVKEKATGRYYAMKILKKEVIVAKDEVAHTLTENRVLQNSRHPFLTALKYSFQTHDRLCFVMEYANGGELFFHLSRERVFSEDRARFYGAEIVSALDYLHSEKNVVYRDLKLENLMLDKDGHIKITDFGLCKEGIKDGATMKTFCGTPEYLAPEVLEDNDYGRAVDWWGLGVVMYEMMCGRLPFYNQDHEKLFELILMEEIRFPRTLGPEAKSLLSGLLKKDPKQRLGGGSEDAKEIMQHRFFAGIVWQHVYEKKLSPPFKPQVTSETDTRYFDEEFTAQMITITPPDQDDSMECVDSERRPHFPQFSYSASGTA

| Compound | IC50 |
| --- | --- |
| c1ccc2c(c1)Nc1ncccc1-n1c(-c3ccc4ccccc4c3)nnc1-2 [hydrochloride] | 29000 nM |
| O=C(Nc1ccc(-c2nnc3n2-c2cccnc2Nc2ccccc2-3)cc1)c1ccc(F)c(C(F)(F)F)c1 [Example 46, N-(4-(9H-benzo[f]pyrido[2,3-b][1,2,4]triazolo[4,3-d][1,4]diazepin-3-yl)phenyl)-4-fluoro-3-(trifluoromethyl)benzamide] | 5300 nM |
| CN(C)c1ccc(-c2nnc3n2-c2ccccc2Nc2ccccc2-3)cc1 [Example 21, 4-(9H-dibenzo[b,f][1,2,4]triazolo[4,3-d][1,4]diazepin-3-yl)-N,N-dimethylaniline] | 3500 nM |
| O=C(CCc1ccccc1)Nc1ccc(-c2nnc3n2-c2cccnc2Nc2ccccc2-3)cc1 [Example 54, N-(4-(9H-benzo[f]pyrido[2,3-b][1,2,4]triazolo[4,3-d][1,4]diazepin-3-yl)phenyl)-3-phenylpropanamide] | 1800 nM |
| CC(C)(C)c1ccc(C(=O)Nc2ccc(-c3nnc4n3-c3cccnc3Nc3ccccc3-4)cc2)cc1 [Example 44, N-(4-(9H-benzo[f]pyrido[2,3-b][1,2,4]triazolo[4,3-d][1,4]diazepin-3-yl)phenyl)-4-(tert-butyl)benzamide] | 230 nM |
| CN(C)C(=O)CN1CCN(Cc2ccc(-c3nnc4n3-c3cccnc3Nc3ccccc3-4)cc2)CC1 [Example 72, 2-(4-(4-(9H-benzo[f]pyrido[2,3-b][1,2,4]triazolo[4,3-d][1,4]diazepin-3-yl)benzyl)piperazin-1-yl)-N,N-dimethylacetamide] | 8000 nM |
| Nc1ccc(-c2nnc3n2-c2cccnc2Nc2ccccc2-3)cc1 [Example 11, hydrochloride] | 730 nM |
| Cn1ccc(S(=O)(=O)NCc2ccc(-c3nnc4n3-c3cccnc3Nc3ccccc3-4)cc2)n1 [Example 104, N-(4-(9H-benzo[f]pyrido[2,3-b][1,2,4]triazolo[4,3-d][1,4]diazepin-3-yl)benzyl)-1-methyl-1H-pyrazole-3-sulfonamide] | 120 nM |
| N#CC1(c2ccccc2)CCN(Cc2ccc(-c3nnc4n3-c3cccnc3Nc3ccccc3-4)cc2)CC1 [Example 163, 1-(4-(9H-benzo[f]pyrido[2,3-b][1,2,4]triazolo[4,3-d][1,4]diazepin-3-yl)benzyl)-4-phenylpiperidine-4-carbonitrile] | 7300 nM |
| O=C(Nc1ccc(-c2nnc3n2-c2cccnc2Nc2ccccc2-3)cc1)c1cccc2ccccc12 [Example 34, N-(4-(9H-benzo[f]pyrido[2,3-b][1,2,4]triazolo[4,3-d][1,4]diazepin-3-yl)phenyl)-1-naphthamide] | 640 nM |
| CC(C)CNCc1ccc(-c2nnc3n2-c2cccnc2Nc2ccccc2-3)cc1 [Example 71, N-(4-(9H-benzo[f]pyrido[2,3-b][1,2,4]triazolo[4,3-d][1,4]diazepin-3-yl)benzyl)-2-methylpropan-1-amine] | 6400 nM |
| c1coc(-c2nnc3n2-c2cccnc2Nc2ccccc2-3)c1 [Example 2] | 6300 nM |
| N#Cc1cccc(C(=O)Nc2ccc(-c3nnc4n3-c3cccnc3Nc3ccccc3-4)cc2)c1 [Example 60, N-(4-(9H-benzo[f]pyrido[2,3-b][1,2,4]triazolo[4,3-d][1,4]diazepin-3-yl)phenyl)-3-cyanobenzamide] | 76 nM |
| CC(C)(C)C(=O)Nc1ccc(-c2nnc3n2-c2cccnc2Nc2ccccc2-3)cc1 [Example 43, N-(4-(9H-benzo[f]pyrido[2,3-b][1,2,4]triazolo[4,3-d][1,4]diazepin-3-yl)phenyl)pivalamide] | 420 nM |
| COc1ccc(S(=O)(=O)NCCc2ccc(-c3nnc4n3-c3cccnc3Nc3ccccc3-4)cc2)cc1 [Example 109, N-(4-(9H-benzo[f]pyrido[2,3-b][1,2,4]triazolo[4,3-d][1,4]diazepin-3-yl)phenethyl)-4-methoxybenzenesulfonamide] | 9100 nM |
| O=C(Nc1ccc(-c2nnc3n2-c2cccnc2Nc2ccccc2-3)cc1)c1cc(C(F)(F)F)cc(C(F)(F)F)c1 [Example 29, N-(4-(9H-benzo[f]pyrido[2,3-b][1,2,4]triazolo[4,3-d][1,4]diazepin-3-yl)phenyl)-3,5-bis(trifluoromethyl)benzamide] | 2500 nM |

The next lines start with the values.

| IC50 | Compound |
| --- | --- |
| 5300 nM | c1ccc(CN2CCN(Cc3ccc(-c4nnc5n4-c4cccnc4Nc4ccccc4-5)cc3)CC2)cc1 [Example 82, 3-(4-((4-benzylpiperazin-1-yl)methyl)phenyl)-9H-benzo[f]pyrido[2,3-b][1,2,4]triazolo[4,3-d][1,4]diazepine] |
| 1200 nM | Cc1ccccc1CNC(=O)NC1CCN(Cc2ccc(-c3nnc4n3-c3cccnc3Nc3ccccc3-4)cc2)CC1 [Example 181, 1-(1-(4-(9H-benzo[f]pyrido[2,3-b][1,2,4]triazolo[4,3-d][1,4]diazepin-3-yl)benzyl)piperidin-4-yl)-3-(2-methylbenzyl)urea] |
| 2700 nM | O=S(=O)(NC1CCN(Cc2ccc(-c3nnc4n3-c3cccnc3Nc3ccccc3-4)cc2)CC1)c1cccc(F)c1 [Example 157, N-(1-(4-(9H-benzo[f]pyrido[2,3-b][1,2,4]triazolo[4,3-d][1,4]diazepin-3-yl)benzyl)piperidin-4-yl)-3-fluorobenzenesulfonamide] |
| 800 nM | COc1ccc(S(=O)(=O)NCc2ccc(-c3nnc4n3-c3cccnc3Nc3ccccc3-4)cc2)cc1 [Example 102, N-(4-(9H-benzo[f]pyrido[2,3-b][1,2,4]triazolo[4,3-d][1,4]diazepin-3-yl)benzyl)-4-methoxybenzenesulfonamide] |
| 660 nM | Cc1cccc(NC(=O)NC2CCN(Cc3ccc(-c4nnc5n4-c4cccnc4Nc4ccccc4-5)cc3)CC2)c1 [Example 170, 1-(1-(4-(9H-benzo[f]pyrido[2,3-b][1,2,4]triazolo[4,3-d][1,4]diazepin-3-yl)benzyl)piperidin-4-yl)-3-(m-tolyl)urea] |
| 6400 nM | CC(C)CS(=O)(=O)NC1CCN(Cc2ccc(-c3nnc4n3-c3cccnc3Nc3ccccc3-4)cc2)CC1 [Example 154, N-(1-(4-(9H-benzo[f]pyrido[2,3-b][1,2,4]triazolo[4,3-d][1,4]diazepin-3-yl)benzyl)piperidin-4-yl)-2-methylpropane-1-sulfonamide] |
| 430 nM | COc1ccccc1C(=O)N1CCN(Cc2ccc(-c3nnc4n3-c3cccnc3Nc3ccccc3-4)cc2)CC1 [Example 134, (4-(4-(9H-benzo[f]pyrido[2,3-b][1,2,4]triazolo[4,3-d][1,4]diazepin-3-yl)benzyl)piperazin-1-yl)(2-methoxyphenyl)methanone] |
| 5700 nM | OC1CCCN(Cc2ccc(-c3nnc4n3-c3cccnc3Nc3ccccc3-4)cc2)C1 (centres unmarked) [Example 83, 1-(4-(9H-benzo[f]pyrido[2,3-b][1,2,4]triazolo[4,3-d][1,4]diazepin-3-yl)benzyl)piperidin-3-ol] |
| 920 nM | c1ccc(OC2CCCN(Cc3ccc(-c4nnc5n4-c4cccnc4Nc4ccccc4-5)cc3)C2)cc1 (centres unmarked) [Example 189, 3-(4-((3-phenoxypiperidin-1-yl)methyl)phenyl)-9H-benzo[f]pyrido[2,3-b][1,2,4]triazolo[4,3-d][1,4]diazepine] |
| 6600 nM | O=S(=O)(Nc1ccc(-c2nnc3n2-c2cccnc2Nc2ccccc2-3)cc1)c1ccccc1 [Example 106, N-(4-(9H-benzo[f]pyrido[2,3-b][1,2,4]triazolo[4,3-d][1,4]diazepin-3-yl)phenyl)benzenesulfonamide] |
| 4300 nM | c1ccc2c(c1)Nc1ncccc1-n1c(-c3ccc(CN4CCCC4)cc3)nnc1-2 [Example 65, 3-(4-(pyrrolidin-1-ylmethyl)phenyl)-9H-benzo[f]pyrido[2,3-b][1,2,4]triazolo[4,3-d][1,4]diazepine] |
| 3400 nM | O=C(CCc1ccccc1)N1CCN(Cc2ccc(-c3nnc4n3-c3cccnc3Nc3ccccc3-4)cc2)CC1 [Example 135, 1-(4-(4-(9H-benzo[f]pyrido[2,3-b][1,2,4]triazolo[4,3-d][1,4]diazepin-3-yl)benzyl)piperazin-1-yl)-3-phenylpropan-1-one] |
| 460 nM | Cc1cccc(S(=O)(=O)NC2(c3ccc(-c4nnc5n4-c4cccnc4Nc4ccccc4-5)cc3)CCC2)c1 [Example 199, N-(1-(4-(9H-benzo[f]pyrido[2,3-b][1,2,4]triazolo[4,3-d][1,4]diazepin-3-yl)phenyl)cyclobutyl)-3-methylbenzenesulfonamide] |
| 48 nM | O=c1[nH]c(-c2ccccc2)cn1C1CCN(Cc2ccc(-c3nnc4n3-c3cccnc3Nc3ccccc3-4)cc2)CC1 [Example 191, 1-(1-(4-(9H-benzo[f]pyrido[2,3-b][1,2,4]triazolo[4,3-d][1,4]diazepin-3-yl)benzyl)piperidin-4-yl)-4-phenyl-1H-imidazol-2(3H)-one] |
| 1200 nM | O=C(Nc1cccc(Cl)c1)NC1CCN(Cc2ccc(-c3nnc4n3-c3cccnc3Nc3ccccc3-4)cc2)CC1 [Example 176, 1-(1-(4-(9H-benzo[f]pyrido[2,3-b][1,2,4]triazolo[4,3-d][1,4]diazepin-3-yl)benzyl)piperidin-4-yl)-3-(3-chlorophenyl)urea] |
| 2300 nM | CCOC(=O)N1CCC(NCc2ccc(-c3nnc4n3-c3cccnc3Nc3ccccc3-4)cc2)CC1 [Example 89, ethyl 4-((4-(9H-benzo[f]pyrido[2,3-b][1,2,4]triazolo[4,3-d][1,4]diazepin-3-yl)benzyl)amino)piperidine-1-carboxylate] |
